Test results from patent publication US12054501B2, “Compositions and methods for inhibiting arginase activity” (Precision Pharmaceuticals Inc., priority 2016, dated 2024).
Entries after “also recorded” stand apart in the source; their conditions may differ.

Columns and labels:
[1] = Hydrolysis of the ethanolate in water (NMR in D2O, HPLC-MS); format: physicochemical; details: hydrolysis to the open free boronic acid form, compound 10
Experimental: The rapid conversion of compound 10e to compound 10 in water was confirmed by the similarity of a spectrum of 10e in D2O to a spectrum of 10 in D2O. When a sample of compound 10e was dissolved in D2O and the spectra immediately recorded (elapsed time <5 minutes), the spectra observed is identical to a spectra of compound 10 (the free boronic acid) plus ethanol (1:1 ratio). The spectrum of 10e in D2O was the same at 5 minutes and one hour after sample preparation, indicating the transformation was rapid and complete after a few minutes.
The NMR spectra (D2O) labeled A is compound 10 (free base) prepared from 11 as described in Example 2. The NMR spectra (D2O) labeled B is an analytical sample of compound 10e prepared as described above. The NMR spectra (D2O) labeled C is the sample from spectra B that has been lyophilized and redissolved in D2O.
Upon dissolution in 1:1 water/acetonitrile and immediate injection into an HPLC system, only a single peak is observed. The mass of this peak is consistent with compound 10.

[2] = test system: Lewis Lung Carcinoma cells; experiment: Lewis Lung Carcinoma efficacy study (tumor volume over time); format: in vivo; details: single agent, dosed orally twice daily at 50, 100 or 200 mg/kg; C57BL/6 mice implanted with Lewis Lung Carcinoma cells; relative to control
Experimental: Female C57.Bl/6 mice (n=40) were implanted subcutaneously with 1×10^6 Lewis Lung Carcinoma cells suspended in PBS. The day following implantation, mice were randomized into 4 groups of n=10 mice to receive the following treatments dosed orally twice daily until study end: 1) Vehicle (water); 2) Compound 10 at 50 mg/kg formulated in water; 3) Compound 10 at 100 mg/kg formulated in water; or 4) Compound 10 at 200 mg/kg formulated in water. Tumors were measured three times per week with digital calipers and tumor volumes calculated with the following formula: tumor volume (mm^3)=(a×b^2/2) where ‘b’ is the smallest diameter and ‘a’ is the largest perpendicular diameter. ***P-value <0.001, ****P-value <0.0001 (Two-sided T-test).

[3] = Moisture sorption/desorption isotherm (TGA study, humidity uptake); format: physicochemical
Experimental: In the TGA study, a weighted amount of compound 10e was treated with increasing amounts of water vapor (increased humidity) and the impact of humidity on the weight of the sample was evaluated.

## CCOB1CCC[C@H]2CN(C(=O)[C@H](C)N)C[C@@]2(N)C(=O)O1 [Compound 10e, (6aS,9aR)-8-(L-alanyl)-9a-amino-3-ethoxyoctahydro-[1,2]oxaborocino[6,7-c]pyrrol-1(3H)-one]
[1]
  stability under physiological conditions or any other aqueous conditions: rapidly hydrolyzes

## C[C@H](N)C(=O)N1C[C@H](CCCB(O)O)[C@](N)(C(=O)O)C1 [Compound 10]
[2]
  tumor growth (tumor volume over time): slows tumor growth relative to control
[3]
  hysteresis of sorption and desorption isotherms: minimal hysteresis
[3]; as humidity is increased
  hygroscopicity: absorbs increasing amounts of water as the humidity increases; also recorded: hygroscopic
[3]; at 90% relative humidity (RH)
  observed moisture uptake: over 70%
